Assays:
Cln2^(−/−) mice [1] = assay: Survival study of Cln2(−/−) mice treated orally with gem; type: in vivo, mouse; details: gem 7.5 mg/kg body weight/day via gavage from 4 weeks of age
Description: Animal maintaining and experiments were in accordance with National Institute of Health guidelines and were approved by the Institutional Animal Care and Use committee (IACUC) of the Rush University of Medical Center, Chicago, Ill. […] However, if any mouse came to the moribund stage, it was decapitated after anesthesia with ketamine/xylazine injectables. Conditions for moribund were as follows: central nervous system disturbance (head tilt, seizures, tremors, circling, spasticity, and paresis); inability to remain upright; evidence of muscle atrophy; chronic diarrhea or constipation; rough coat and distended abdomen; preading area of alopecia caused by disease; coughing, rales, wheezing and nasal discharge; distinct jaundice and/or paleness (anemia); markedly discolored urine, polyuria or anuria; frank bleeding from any orifice; persistent self-induced trauma. Cln2^(+/−) animals were kindly provided by Dr. Peter Lobel (Center for Advanced Biotechnology and Medicine, Robert Wood Johnson Medical School, Piscataway, N.J., USA). These animals were inbred and subsequent generations were screened by RTPCR to further obtain Cln2^(+/+), Cln2^(+/−) and Cln2^(−/−) strains. […]
All values are expressed as means±SEM. […]

[2] = cited from earlier work
IL-1Ra [3] = assay: Western blot of motor cortex and striatum extracts for IL-1Ra; type: in vivo, mouse; details: Cln2(−/−) mice, 8 weeks of oral gem; both motor cortex and striatum
Procedure: (§1) Age- and sex-matched Cln2^(+/+) mice from the same background were used as wild type (WT) controls and Cln2^(−/−) animals were used in different treatment groups. Gem (7.5 mg/kg body wt/day) was dissolved in DMSO followed by dilution in 0.1% methyl cellulose (MeC). Cln2^(−/−) mice were either not fed (Un-untreated group), gavaged with 0.1% MeC (vehicle treated group) or gavaged with gem (gem-treated group) for 8 weeks for biochemical studies. Similar treatment regimen was followed as long as the animals are not considered to be morbid as described above for survival study. Here, 40 mice (20 male and 20 female) were used per group and animals (4 weeks old) were randomly selected for any group.
(§2) After 8 weeks of treatment, mice were sacrificed and cortex and striatum regions were isolated, homogenized in RIPA buffer (150 mM sodium chloride, 1.0% NP-40 or Triton X-100, 0.5% sodium deoxycholate, 0.1% SDS (sodium dodecyl sulphate), 50 mM Tris, pH 8.0), supernatant was taken and protein was estimated by BioRad protein assay. Equal amounts of protein from the tissue extract were separated in 12% or 15% Bis-Tris gels and proteins were transferred onto a nitrocellulose membrane (Bio-Rad) using the Thermo-Pierce Fast Semi-Dry Blotter (Corbett et al. 2015, Roy et al. 2015, Roy et al. 2016). […]

phospho-BAD (P-BAD) = assay: Immunoblot of brain homogenates for phospho-BAD; type: in vivo, mouse; details: Cln2(−/−) mice, oral gem 7.5 mg/kg/day, 8 weeks
Procedure: as §1, §2

[4] = tested on: subunit c of mitochondrial ATP synthase (SCMAS); assay: Detection of storage materials by immunofluorescence of subunit c in motor cortex; type: in vivo, mouse; details: Cln2(−/−) mice, oral gem 7.5 mg/kg/day, 8 weeks
Procedure: as §1
(§3) After 8 weeks of treatment, mice were sacrificed and their brains fixed, embedded, and processed. […] The samples were mounted and observed under Olympus IX41 fluorescence microscope. […] After acquiring images under 20×objective lens, images were further analyzed as follows. […] Once the area of the image was measured, touch counting program was applied to count number of fluorescent signals using simple mouse click method. […]
It was performed by monitoring subunit c of mitochondrial ATP synthase (SCMAS) by immunofluorescence. […] SCMAS-associated fluorescence intensity was quantified by using the Olympus Microsuite V software. […]

Cln2^(−/−) mice [5] = assay: Locomotor activity (Digiscan Monitor open field) in Cln2(−/−) mice; type: in vivo, mouse; details: oral gem 7.5 mg/kg/day, after 8 weeks of treatment
Procedure: as §1
Locomotor activities were measured in Cln2^(−/−) mice after 8 weeks of gem treatment using Digiscan Monitor (Omnitech Electronics, Inc., Columbus, Ohio) as described by us (Khasnavis & Pahan 2014, Ghosh et al. 2007, Ghosh et al. 2009). This Digiscan Monitor records basic locomotion parameters, such as horizontal activity, total distance traveled, movement time, rest time, etc. as well as stereotypy, behavior that is directly controlled by striatum. […] DIGISCAN software was used to analyze and store horizontal and vertical activity data, which were monitored automatically by infra-red beams. […]

SOCS3 [6] = assay: Double-label immunofluorescence of striatal sections for SOCS3 (GFAP, Iba1); type: in vivo, mouse; details: Cln2(−/−) mice, 8 weeks of oral gem, seen in astrocytes, microglia and other brain cells
Procedure: as §1
as §3, with “processed. Sections (30 μm) were made from different brain regions (motor cortex and striatum) using a Leica Cryostat and immunofluorescence staining on fresh frozen sections was performed as described (Corbett et al. 2015, Roy et al. 2015, Roy et al. 2016).” for “processed.”

SOCS3 [7] = assay: Western blot of motor cortex and striatum extracts for SOCS3; type: in vivo, mouse; details: Cln2(−/−) mice, 8 weeks of oral gem; both motor cortex and striatum
Procedure: as §1, §2

IL-1Ra [8] = assay: Double-label immunofluorescence of striatal sections for IL-1Ra (GFAP, Iba1); type: in vivo, mouse; details: Cln2(−/−) mice, 8 weeks of oral gem, in both astrocytes and microglia
Procedure: as §1
as §3, with “processed. Sections (30 μm) were made from different brain regions (motor cortex and striatum) using a Leica Cryostat and immunofluorescence staining on fresh frozen sections was performed as described (Corbett et al. 2015, Roy et al. 2015, Roy et al. 2016).” for “processed.”

[9] = after oral administration; cited from earlier work
astroglia or microglia = assay: Astroglia and microglia in brain sections (GFAP, Iba1 immunofluorescence); type: in vivo, mouse; details: Cln2(−/−) mice, after gem treatment; motor cortex and striatum
Procedure: as §1
as §3, with “processed. Sections (30 μm) were made from different brain regions (motor cortex and striatum) using a Leica Cryostat and immunofluorescence staining on fresh frozen sections was performed as described (Corbett et al. 2015, Roy et al. 2015, Roy et al. 2016).” for “processed.”

NeuN-positive neurons = assay: Neuronal apoptosis, NeuN/TUNEL double-labeling of brain sections; type: in vivo, mouse; details: Cln2(−/−) mice, oral gem 7.5 mg/kg/day, 8 weeks
Procedure: Reagents for TUNEL assay on frozen brain sections were purchased from EMD Millipore (Billerica, Mass.) and experiments were performed according to manufacturer's protocol. Blocking buffer and secondary antibodies for immune blot (IB) (IRDye 700 or IRDye 800—labelled) were purchased from Licor (Lincoln, Nebr.). Secondary antibodies for immunohistochemistry (IHC) (FITC or Cy5—labeled) were purchased from Jackson ImmunoResearch (West Grove, Pa.).
Age- and sex-matched Cln2^(+/+) mice from the same background were used as wild type (WT) controls and Cln2^(−/−) animals were used in different treatment groups. Gem (7.5 mg/kg body wt/day) was dissolved in DMSO followed by dilution in 0.1% methyl cellulose (MeC). Cln2^(−/−) mice were either not fed (Un-untreated group), gavaged with 0.1% MeC (vehicle treated group) or gavaged with gem (gem-treated group) for 8 weeks for biochemical studies. […]
as §3

Q: Which results are given for `Cc1ccc(C)c(OCCCC(C)(C)C(=O)O)c1` [gem, 5-(2,5-dimethylphenoxy)-2,2-dimethylpentanoic acid]?
A: increase of the lifespan (Cln2^(−/−) mice [1]): more than 2 months; survived until (Cln2^(−/−) mice [1]; untreated all died within 137 days, vehicle within 150 days): 204 days; tolerability ([2]; human and animal studies): well tolerated; toxicity ([2]; oral drug): fairly nontoxic; IL-1Ra level, Western blot (IL-1Ra [3]): increase; level of P-BAD in the motor cortex (phospho-BAD (P-BAD); motor cortex): upregulation of P-BAD; level of P-BAD in the striatum (phospho-BAD (P-BAD); striatum): increased the level of P-BAD; SCMAS storage material in the motor cortex [4]: significant decrease in SCMAS; locomotor activities (horizontal activity, movement time, number of movement, total distance, stereotypy counts, rest time) (Cln2^(−/−) mice [5]): significantly improved locomotor activities; SOCS3 in the striatum, immunofluorescence (SOCS3 [6]): marked increase in SOCS3; SOCS3 level, Western blot (SOCS3 [7]): increase in SOCS3; IL-1Ra in the striatum, immunofluorescence (IL-1Ra [8]): restoration and/or upregulation of IL-1Ra; entry into the CNS [9]: enters into the CNS; number of astroglia or microglia (astroglia or microglia): did not observe any reduction in either astroglia or microglia; neuronal apoptosis (NeuN+TUNEL+ cells) in the motor cortex (NeuN-positive neurons; motor cortex): strongly inhibited neuronal apoptosis; neuronal apoptosis (NeuN+TUNEL+ cells) in the striatum (NeuN-positive neurons; striatum): reduced neuronal apoptosis

Source: patent US11020366B2, “Locomotor activity and increase in longevity of late infantile neuronal ceriod lipofuscinosis subjects by Gemfibrozil” (Rush University Medical Center, priority 2016, dated 2021)
